The values that follow come from article PMC8760490, “Discovery of novel furanylbenzamide inhibitors that target oncogenic tyrosine phosphatase SHP2 in leukemia cells” (The Journal of Biological Chemistry, 2021).

The structures appear in SMILES notation. Bounds are passed on as bounds.

The target of assay [1] is T1, STEP (280–566) catalytic domain (Homo sapiens, UniProt P54829).
T1 construct: the codon-optimized STEP (280–566) catalytic domains; His tag (pET-15b) (N); made in house; host or cells: E. coli BL21(DE3)
T1 sequence (P54829 280-565 limits assumed): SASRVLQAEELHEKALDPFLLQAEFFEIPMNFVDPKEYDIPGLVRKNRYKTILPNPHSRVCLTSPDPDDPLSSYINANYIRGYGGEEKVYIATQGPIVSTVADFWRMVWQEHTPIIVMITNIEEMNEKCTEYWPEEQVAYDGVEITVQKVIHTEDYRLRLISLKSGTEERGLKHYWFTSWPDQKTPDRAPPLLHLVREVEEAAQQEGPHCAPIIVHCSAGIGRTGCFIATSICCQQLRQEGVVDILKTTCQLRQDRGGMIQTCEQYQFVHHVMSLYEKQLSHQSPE
Briefly: DiFMUP phosphatase inhibition assay, STEP. The format is biochemical. Particulars: for IC50: catalytic domain, DiFMUP at Km (4 μM); for selectivity for SHP2 over STEP: from IC50 values against catalytic domains. The procedure:
(§1) Selectivity is one of the biggest challenges in PTP inhibitor development. […] Similar to SHP2, we adapted a 384-well plate format DiFMUP assay for recombinant PTP1B and STEP and performed Michaelis–Menten experiments to determine DiFMUP Km values for each phosphatase. IC50 values of our inhibitors for PTP1B and STEP were determined in 10-point dose–response assays with DiFMUP used at the concentration corresponding to the respective Km value. […] Other inhibitors with good relative selectivity for SHP2 included SBI-4668 (13-fold selective over PTP1B; 73-fold selective over STEP) and SBI-3404 (fivefold selective over PTP1B; >71-fold selective over STEP).
(§2) Recombinant human full-length SHP2 (1–594) WT and E76K mutants, as well as the SHP2cat (248–527), were expressed and purified as described before ([36], [41]). Recombinant human PTP1B (1–300) and the codon-optimized STEP (280–566) catalytic domains were cloned into PET-15b and expressed as N-His-tagged fusion proteins. For expression, transformed BL21(DE3) cells were grown and induced similar as described for SHP2. Collected cells were resuspended in lysis buffer (25 mM Tris, pH 7.5, 300 mM NaCl, 50 mM imidazole, and 10% glycerol) with 100 mg/l RNaseA and were lysed with two passages using a microfluidizer. The lysate was clarified by centrifugation at 15,000g for 50 min and applied to nickel–nitrilotriacetic acid resin. The column resin was washed, and the PTP1B or STEP protein was eluted in lysis buffer at 300 mM imidazole. The PTP1B or STEP protein was further purified by S75 size-exclusion chromatography in 50 mM Tris, pH 7.5, 50 mM NaCl. The eluted peak fractions were supplemented with tris(2-carboxyethyl)phosphine to 10 mM, concentrated by ultrafiltration, and stored at −80 °C. The purified yield of PTP1B was 33 mg/l cell culture; the yield of STEP was 16 mg/l cell culture.
(§3) SHP2 inhibitors were tested at RT in a 384-well plate format standard phosphatase fluorescence intensity assay using DiFMUP (Invitrogen/Thermo Fisher Scientific) as a substrate and a total reaction volume of 25 μl. SHP2 inhibitors or vehicle (DMSO) were spotted in triplicate into a black Greiner FLUOTRAC 200 384-well microplate (catalog no.: 781076; Greiner) for a 10-point dose–response assay using an Echo 555 Liquid Handler (Labcyte, Inc). PTP working solutions were prepared at a 0.625 nM concentration (for a final concentration of 0.5 nM) in buffer containing 50 mM Bis–Tris, pH 6.0, 50 mM NaCl, 5 mM DTT, and 0.01% Tween-20. Prior to the assay, a dually phosphorylated IRS-1 peptide (625 nM [500 nM final] ([30])) was added to full-length WT SHP2 working solutions and incubated for 20 min. DiFMUP working solutions at 5× final concentration were prepared in 50 mM Bis–Tris, pH 6.0, 50 mM NaCl, and 0.01% Tween-20. About 20 μl of PTP working solution was dispensed into the microplate and incubated with inhibitor for 20 min at RT. […] The reaction was initiated by addition of 5 μl DiFMUP working solutions. Fluorescence intensity was measured in kinetic mode (every minute for 7 or 10 min) using a Tecan Spark Multimode Microplate Reader (Tecan) with an excitation wavelength of 360 nm and an emission wavelength of 460 nm. The initial rates were determined from the linear progression curves of the PTP reaction. The nonenzymatic hydrolysis of the substrate was corrected by using a control without addition of enzyme. IC50 values were calculated from the corrected initial rates by nonlinear regression using the program GraphPad Prism, version 8 (GraphPad Software, Inc) software. Dose–response inhibition assays of SHP2cat using the substrate OMFP were performed similarly as described previously for DiFMUP. OMFP was used at a concentration corresponding to its Km value for SHP2cat (50 μM final). Fluorescence intensity was measured in kinetic mode (every minute for 10 min) using a Tecan Spark Multimode Microplate Reader with an excitation wavelength of 485 nm and an emission wavelength of 535 nm. […]

Assay [2] concerns the target T2, PTP1B (1–300) catalytic domain (Homo sapiens, UniProt P18031).
T2 construct: Recombinant human PTP1B (1–300); His tag (pET-15b) (N); made in house; host or cells: E. coli BL21(DE3)
T2 sequence (P18031 1-300): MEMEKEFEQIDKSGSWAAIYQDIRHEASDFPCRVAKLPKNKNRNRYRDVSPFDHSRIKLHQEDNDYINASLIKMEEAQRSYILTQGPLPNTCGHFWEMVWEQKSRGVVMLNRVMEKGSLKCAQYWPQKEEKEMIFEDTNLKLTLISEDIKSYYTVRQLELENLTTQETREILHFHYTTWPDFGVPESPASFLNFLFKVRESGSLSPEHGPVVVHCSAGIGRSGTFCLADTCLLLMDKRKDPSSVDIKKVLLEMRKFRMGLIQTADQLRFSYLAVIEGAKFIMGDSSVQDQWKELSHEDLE
Briefly: DiFMUP phosphatase inhibition assay, PTP1B. The class given is biochemical. Particulars: for IC50: catalytic domain, DiFMUP at Km (25 μM); for selectivity for SHP2 over PTP1B: from IC50 values against catalytic domains. How it is done:
as §1, §2, §3

As to `Nc1ccc(NC(=O)c2cc(-c3ccc(/C=C4\Sc5ccccc5C4=O)o3)ccc2O)cc1` [SBI-2130, (Z)-N-(4-Aminophenyl)-2-hydroxy-5-(5-((3-oxobenzo[b]thiophen-2(3H)-ylidene)methyl)furan-2-yl)benzamide], in assay [1], the half-maximal inhibitory concentration (IC50) worked out at 44 µM and the “selectivity for SHP2 over STEP” value worked out at 200 fold. For the same compound, in assay [2], the half-maximal inhibitory concentration (IC50) worked out at 6.8 µM and the “selectivity for SHP2 over PTP1B” value worked out at 31 fold.
Consider `O=C1CCCC1=Cc1ccc(-c2ccc(O)c(C(=O)Nc3ccccc3)c2)o1` [SBI-3192, 2-Hydroxy-5-(5-((2-oxocyclopentylidene)methyl)furan-2-yl)-N-phenylbenzamide], for which the IC50 in assay [1] amounted to 27 µM; in assay [2], 1.9 µM.
Turning to `N#Cc1cc(-c2ccc(/C=C3\Sc4ccccc4C3=O)o2)ccc1O` [SBI-3404, (Z)-2-Hydroxy-5-(5-((3-oxobenzo[b]thiophen-2(3H)-ylidene)methyl)furan-2-yl)benzonitrile], in assay [1], the “selectivity for SHP2 over STEP” value is listed as above 71 fold. Moreover, in assay [2], the IC50 turned out to be 7.4 µM and the “selectivity for SHP2 over PTP1B” value is on record as “fivefold”.
As for `O=C1/C(=C/c2ccc(-c3ccc(O)c(-c4nn[nH]n4)c3)o2)Sc2ccccc21` [SBI-3405, (Z)-2-((5-(4-Hydroxy-3-(2H-tetrazol-5-yl)phenyl)furan-2-yl)methylene)benzo[b]thiophen-3(2H)-one], the IC50 in assay [1] was 7.7 µM; in assay [2], 5.3 µM.
With `O=C(Nc1ccccc1)c1cc(-c2ccc(/C=C3\Sc4ccccc4C3=O)o2)ccc1O` [SBI-4668, (Z)-2-Hydroxy-5-(5-((3-oxobenzo[b]thiophen-2(3H)-ylidene)methyl)furan-2-yl)-N-phenylbenzamide], in assay [1], the concentration for half-maximal inhibition (IC50) was determined as 53 µM and the “selectivity for SHP2 over STEP” value worked out at 73 fold. In addition, in assay [2], it took 9.4 µM to reach half-maximal inhibition (IC50) and the “selectivity for SHP2 over PTP1B” value is given as 13 fold.
